{"source": "the NIST ThermoML archive (doi:10.1016/j.jct.2015.08.019)", "experiment": "excess molar enthalpy (molar enthalpy of mixing); xn = mol fraction of the nth substance listed", "conditions": "473 K, 101.3 kPa, Crystal, Calvet calorimetry", "note": "± gives the expanded uncertainty stated by the source.", "data": [{"smiles": "O=[N+]([O-])[O-].[Tl+]", "note": "[thallium nitrate] + O=[N+]([O-])[O-].[Cs+]", "values": [{"measurement": "excess molar enthalpy", "setting": "x2 = 0.25", "result": "0.299 ± 0.0621", "unit": "kcal/mol"}, {"measurement": "excess molar enthalpy", "setting": "x2 = 0.5", "result": "0.343 ± 0.0717", "unit": "kcal/mol"}, {"measurement": "excess molar enthalpy", "setting": "x2 = 0.75", "result": "0.248 ± 0.0526", "unit": "kcal/mol"}]}]}
